Patent publication US20040024024A1, “Aromatic sulfone hydroxamates and their use as protease inhibitors” (priority 2001, published 2004)
pIC50: −log10 of the molar value.

Columns and labels:
Assay in all cases: In vitro MMP inhibition, IC50 determination (fluorogenic substrate I)
Type in all cases: biochemical
Human recombinant MMP-1 = target: T1, Human recombinant MMP-1 (Homo sapiens, UniProt P03956)
T1 construct: made in house; host or cells: MMP-1-transfected HT-1080 cells (spent media)
T1 sequence (P03956 100-469): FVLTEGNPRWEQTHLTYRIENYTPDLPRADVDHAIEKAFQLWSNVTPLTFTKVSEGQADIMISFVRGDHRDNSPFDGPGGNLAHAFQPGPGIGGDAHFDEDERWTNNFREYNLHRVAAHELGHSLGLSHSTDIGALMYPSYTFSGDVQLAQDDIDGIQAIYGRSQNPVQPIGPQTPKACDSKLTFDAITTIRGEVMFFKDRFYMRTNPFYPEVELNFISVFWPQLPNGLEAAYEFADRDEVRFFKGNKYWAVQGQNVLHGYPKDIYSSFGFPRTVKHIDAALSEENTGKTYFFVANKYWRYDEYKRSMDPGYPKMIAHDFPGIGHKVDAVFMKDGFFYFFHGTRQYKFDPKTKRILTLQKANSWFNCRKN
Method in brief: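 APMA- or trypsin-activated enzyme, purified from spent media of transfected HT-1080 cells, incubated at room temperature with 4 μM MCA-Pro-Leu-Gly-Leu-Dpa-Ala-Arg-NH2 and graded inhibitor in Tris buffer pH 7.5 (10 mM CaCl2, 0.05% Brij). Cleavage read by fluorescence (ex 328/em 415 nm); IC50 from fluorescence reduction versus inhibitor concentration.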

Human recombinant MMP-2 = target: T2, Human recombinant MMP-2 (Homo sapiens, UniProt P08253)
T2 construct: made in house; host or cells: MMP-2-transfected p2AHT2 cells
T2 sequence (P08253 110-660): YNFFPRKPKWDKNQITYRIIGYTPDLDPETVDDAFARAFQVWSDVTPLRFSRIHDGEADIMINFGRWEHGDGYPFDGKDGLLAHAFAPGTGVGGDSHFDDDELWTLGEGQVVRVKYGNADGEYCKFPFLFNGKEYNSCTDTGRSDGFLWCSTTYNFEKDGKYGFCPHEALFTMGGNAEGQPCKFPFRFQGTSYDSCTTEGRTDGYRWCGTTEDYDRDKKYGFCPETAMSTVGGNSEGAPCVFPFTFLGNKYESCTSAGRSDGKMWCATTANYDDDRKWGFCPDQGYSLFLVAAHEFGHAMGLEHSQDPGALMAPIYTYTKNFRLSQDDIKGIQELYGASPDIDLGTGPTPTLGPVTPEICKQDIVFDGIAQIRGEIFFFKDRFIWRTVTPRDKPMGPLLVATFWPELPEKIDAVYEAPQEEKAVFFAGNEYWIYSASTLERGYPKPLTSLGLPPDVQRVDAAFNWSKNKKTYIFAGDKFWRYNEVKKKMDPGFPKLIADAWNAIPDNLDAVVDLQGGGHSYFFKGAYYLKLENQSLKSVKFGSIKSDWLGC
Method in brief: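 APMA- or trypsin-activated recombinant MMP-2 was incubated at room temperature with serial inhibitor dilutions in Tris buffer pH 7.5 (100 mM NaCl, 10 mM CaCl2, 0.05% Brij), with DMSO from 1% stocks, and 4 μM substrate I. Cleavage was read by fluorescence at 328/415 nm; IC50 was taken from the loss of fluorescence versus inhibitor concentration.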

Human recombinant MMP-9 = target: T3, Human recombinant MMP-9 (Homo sapiens, UniProt P14780)
T3 construct: made in house; host or cells: MMP-9-transfected HT1080 cells (spent media)
T3 sequence (P14780 107-707 limits assumed): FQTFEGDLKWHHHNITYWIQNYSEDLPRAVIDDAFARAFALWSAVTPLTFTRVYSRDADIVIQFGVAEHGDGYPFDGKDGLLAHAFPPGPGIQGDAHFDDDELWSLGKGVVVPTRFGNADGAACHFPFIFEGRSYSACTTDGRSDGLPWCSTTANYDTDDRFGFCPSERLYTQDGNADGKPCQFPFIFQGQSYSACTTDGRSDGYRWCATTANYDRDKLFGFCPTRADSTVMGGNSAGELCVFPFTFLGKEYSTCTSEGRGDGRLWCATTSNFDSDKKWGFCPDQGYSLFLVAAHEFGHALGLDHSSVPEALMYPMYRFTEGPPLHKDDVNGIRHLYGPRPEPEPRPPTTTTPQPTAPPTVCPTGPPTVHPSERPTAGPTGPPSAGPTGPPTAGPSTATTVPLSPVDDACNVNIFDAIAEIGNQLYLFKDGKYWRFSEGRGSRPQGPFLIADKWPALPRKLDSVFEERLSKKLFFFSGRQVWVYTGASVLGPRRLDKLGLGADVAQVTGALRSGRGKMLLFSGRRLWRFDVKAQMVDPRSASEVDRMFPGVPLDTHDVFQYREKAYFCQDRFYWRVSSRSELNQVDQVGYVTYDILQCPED
Method in brief: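 MMP-9 proenzyme purified from transfected HT1080 cell media, activated with APMA or trypsin. Compound dilutions in pH 7.5 Tris/NaCl/CaCl2 buffer with 0.05% polyoxyethylene 23 lauryl ether, incubated at room temperature with 4 μM MCA/Dpa substrate I. IC50 from fluorescence loss (ex 328, em 415 nm) versus inhibitor concentration.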

Human recombinant MMP-13 = target: T4, Human recombinant MMP-13 (Homo sapiens, UniProt P45452)
T4 construct: made in house; host or cells: baculovirus / insect cells
Method in brief: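 Fluorescence at 415 nm (excitation 328 nm) reports Gly-Leu cleavage of 4 μM quenched methoxycoumarin peptide substrate I. Human recombinant MMP-13, activated by trypsin or APMA, was incubated at room temperature with varied inhibitor concentrations in pH 7.5 Tris/NaCl/CaCl2 buffer; IC50 derived from reduced fluorescence.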

Human recombinant MMP-14 = target: T5, Human recombinant MMP-14 (Homo sapiens, UniProt P50281)
T5 construct: The catalytic domain enzyme was expressed in E. coli inclusion bodies, solubilized in urea; made in house
Method in brief: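 Catalytic-domain MMP-14, expressed in E. coli and refolded, activated with APMA or trypsin; compounds incubated at room temperature with 4 μM fluorogenic substrate I (MCA-PLGL-Dpa-AR-NH2) in Tris/NaCl/CaCl2 buffer, pH 7.5. Fluorescence at ex 328/em 415 nm; IC50 from loss of fluorescence versus inhibitor concentration.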

[1] = value outside parentheses (Ki in parenthesis)

pIC50 (Human recombinant MMP-1; [1]) | pIC50 (Human recombinant MMP-2; [1]) | pIC50 (Human recombinant MMP-9; [1]) | pIC50 (Human recombinant MMP-13; [1]) | pIC50 (Human recombinant MMP-14; [1]) | pIC50 (Human recombinant MMP-1; value outside parentheses) | pIC50 (Human recombinant MMP-2; value outside parentheses) | pIC50 (Human recombinant MMP-9; value outside parentheses) | pIC50 (Human recombinant MMP-13; value outside parentheses) | pIC50 (Human recombinant MMP-14; value outside parentheses) | Structure (SMILES)
< 5.00 | 8.40 | 6.74 | 9.52 | 5.74 |  |  |  |  |  | COc1ccc(CCCOc2ccc(S(=O)(=O)C3(C(=O)NO)CCOCC3)cc2)cc1 [Example 465]
< 5.00 | 6.96 | 7.35 | 7.82 | < 5.00 |  |  |  |  |  | COc1ccc(CCCOc2ccc(S(=O)(=O)C3(C(=O)NO)CCOCC3)cc2)cc1OC [Example 466]
< 5.00 | 6.03 | 6.35 | 6.92 | < 5.00 |  |  |  |  |  | CC(CCc1ccccc1)Oc1ccc(S(=O)(=O)C2(C(=O)NO)CCOCC2)cc1 (stereo not drawn) [Example 467]
5.57 | 8.40 | 7.85 | 8.52 | 5.70 |  |  |  |  |  | C/C(=C\c1ccccc1)COc1ccc(S(=O)(=O)C2(C(=O)NO)CCOCC2)cc1 [Example 479]
< 5.00 | 8.51 | 6.77 | 9.30 | 5.80 |  |  |  |  |  | COc1ccc(C(O)CCCCOc2ccc(S(=O)(=O)C3(C(=O)NO)CCOCC3)cc2)cc1 (stereo not drawn) [Example 487]
 |  |  |  |  | 5.14 | 8.17 | 7.03 | 9.10 | 6.01 | COc1ccc(C(=O)CCCOc2ccc(S(=O)(=O)C3(C(=O)NO)CCOCC3)cc2)cc1 [Example 491]
 |  |  |  |  | 5.45 | 8.46 | 7.17 | 9.15 | 6.24 | O=C(CCCOc1ccc(S(=O)(=O)C2(C(=O)NO)CCOCC2)cc1)c1ccccc1 [Example 492]
 |  |  |  |  | 6.09 | 8.72 | 7.59 | 8.77 | 6.30 | O=C(CCOc1ccc(S(=O)(=O)C2(C(=O)NO)CCOCC2)cc1)c1ccccc1 [Example 495]
 |  |  |  |  | < 5.00 | 7.05 | 6.81 | 7.62 | < 5.00 | O=C(NO)C1(S(=O)(=O)c2ccc(OCCOCc3ccccn3)cc2)CCOCC1 [Example 515]
 |  |  |  |  | < 5.00 | 7.38 | 6.92 | 8.02 | 5.03 | O=C(NO)C1(S(=O)(=O)c2ccc(OCCOCc3ccncc3)cc2)CCOCC1 [Example 516]
 |  |  |  |  | < 5.00 | 6.77 | 6.38 | 8.66 | < 5.00 | O=C(NO)C1(S(=O)(=O)c2ccc(OCCCOCc3ccccn3)cc2)CCOCC1 [Example 519]
 |  |  |  |  | < 5.00 | 7.27 | 7.44 | 9.21 | 5.37 | O=C(NO)C1(S(=O)(=O)c2ccc(OCCCOCc3cccnc3)cc2)CCOCC1 [Example 520]

Second part, the compound before the results:

Structure (SMILES) | pIC50 (Human recombinant MMP-1; [1]) | pIC50 (Human recombinant MMP-2; [1]) | pIC50 (Human recombinant MMP-9; [1]) | pIC50 (Human recombinant MMP-13; [1]) | pIC50 (Human recombinant MMP-14; [1]) | pIC50 (Human recombinant MMP-1; value outside parentheses) | pIC50 (Human recombinant MMP-2; value outside parentheses) | pIC50 (Human recombinant MMP-9; value outside parentheses) | pIC50 (Human recombinant MMP-13; value outside parentheses) | pIC50 (Human recombinant MMP-14; value outside parentheses)
CCCCOCCCNc1ccc(S(=O)(=O)C2(C(=O)NO)CCOCC2)cc1 [Example 460] | < 5.00 | 6.84 | 6.15 | 7.60 | < 5.00 |  |  |  |  | 
O=C(NO)C1(S(=O)(=O)c2ccc(NCCCCc3ccccc3)cc2)CCOCC1 [Example 462] | < 5.00 | 7.96 | 7.74 | 8.15 | 5.19 |  |  |  |  | 
COC(C)CCOc1ccc(S(=O)(=O)C2(C(=O)NO)CCOCC2)cc1 (stereo not drawn) [Example 472] | < 5.00 | 8.52 | 7.40 | 8.22 | 6.40 |  |  |  |  | 
COC(C)(C)CCOc1ccc(S(=O)(=O)C2(C(=O)NO)CCOCC2)cc1 [Example 473] | < 5.00 | 8.30 | 7.35 | 8.30 | 6.22 |  |  |  |  | 
CCCC(CCOc1ccc(S(=O)(=O)C2(C(=O)NO)CCOCC2)cc1)SC (stereo not drawn) [Example 475] | < 5.00 | 7.52 | 6.92 | 8.70 | 5.44 |  |  |  |  | 
CCCC(CCOc1ccc(S(=O)(=O)C2(C(=O)NO)CCOCC2)cc1)S(C)(=O)=O (stereo not drawn) [Example 476] | < 5.00 | 5.60 | < 5.00 | 6.64 | < 5.00 |  |  |  |  | 
O=C(NO)C1(S(=O)(=O)c2ccc(OCCC3CCCCC3)cc2)CCOCC1 [Example 478] | < 5.00 | 9.00 | 7.47 | 8.30 | 5.84 |  |  |  |  | 
O=C(NO)C1(S(=O)(=O)c2ccc(OC3CCOCC3)cc2)CCOCC1 [Example 480] | 5.38 | 7.74 | 7.22 | 7.96 | 5.85 |  |  |  |  | 
CN(C)c1ccc(/C=C/CCCOc2ccc(S(=O)(=O)C3(C(=O)NO)CCOCC3)cc2)cc1 [Example 486] | < 5.00 | 6.97 | 6.59 | 8.34 | < 5.00 |  |  |  |  | 
O=C(CCCCOc1ccc(S(=O)(=O)C2(C(=O)NO)CCOCC2)cc1)c1ccc2ccccc2c1 [Example 489] | < 5.00 | 7.24 | < 5.00 | 9.40 | < 5.00 |  |  |  |  | 
CN(C)c1ccc(C(=O)CCCOc2ccc(S(=O)(=O)C3(C(=O)NO)CCOCC3)cc2)cc1 [Example 490] | < 5.00 | 7.74 | 6.03 | 9.70 | 5.25 |  |  |  |  | 
COc1ccc(C(=O)CCOc2ccc(S(=O)(=O)C3(C(=O)NO)CCOCC3)cc2)cc1 [Example 494] |  |  |  |  |  | 5.82 | > 10.00 | 7.87 | > 10.00 | 6.71
COc1ccc(-c2nnc(CCCOc3ccc(S(=O)(=O)C4(C(=O)NO)CCOCC4)cc3)o2)cc1 [Example 501] |  |  |  |  |  | < 5.00 | 6.74 | 5.11 | 8.85 | < 5.00
O=C(NO)C1(S(=O)(=O)c2ccc(OCCSc3nc4ccc(Cl)cc4o3)cc2)CCOCC1 [Example 502] |  |  |  |  |  | < 5.00 | 7.64 | 6.80 | 9.00 | 5.25
O=C(NCCSc1ccc(S(=O)(=O)C2(C(=O)NO)CCOCC2)cc1)c1nc2ccccc2o1 [Example 576] |  |  |  |  |  | < 5.00 | 6.63 | 6.40 | 9.52 | < 5.00
O=C(NO)C1(S(=O)(=O)c2ccc(OCCCc3cc(-c4ccc(F)c(F)c4)cs3)cc2)CCOCC1 [Example 580] |  |  |  |  |  | < 5.00 | 6.87 | 6.38 | 9.22 | < 5.00
O=C(Cc1ccsc1)NCCOc1ccc(S(=O)(=O)C2(C(=O)NO)CCOCC2)cc1 [Example 601] |  |  |  |  |  | 5.31 | 8.72 | 7.37 | 8.89 | 5.69
O=C(NO)C1(S(=O)(=O)c2ccc(OCCCc3cc(-c4ccc(F)cc4)cs3)cc2)CCOCC1 [Example 607] |  |  |  |  |  | < 5.00 | 7.34 | 5.64 | 10.00 | < 5.00
